Results from patent US20210275575A1, “COMPOSITION FOR IMPROVING RENAL FUNCTION IN RENAL DISEASES CONTAINING MOLECULAR HYDROGEN” (MiZ Company Limited, priority 2020, published 2021).
Read-outs that look alike come from different tables or passages of the source.

Key:
[1] = tested on: patient with renal failure
Experimental: A person developed renal failure from diabetes and has been on dialysis since 2006.
Therefore, they started hydrogen gas inhalation in September 2019. Specifically, they did inhalations 3 to 4 hours per day using a hydrogen generator (model used: Jobs-a manufactured by MiZ Company Limited (hydrogen concentration: about 5%, other gas: air), amount of hydrogen gas generated: 200 ml/min).

[2] = tested on: human patient with chronic nephritis
[3] = approximately three years after first visit (about 2 years of inhalation)
[4] = approximately two and a half years after first visit
[5] = approximately two and a half years after first visit, 6 to 7.5% hydrogen inhaled 2 to 3 hours per day

For [HH] [molecular hydrogen], the “feelings of heaviness after dialysis” value ([1]; 1 month after starting hydrogen inhalation) was “their body felt lighter”, the edema after dialysis ([1]; 1 month after starting hydrogen inhalation, about 5% hydrogen in air, 3 to 4 hours per day) was “the edema decreased” and the walking ability ([1]; 10 days after starting hydrogen inhalation, about 5% hydrogen in air, 3 to 4 hours per day) was “became able to walk”. The “urinary protein (protein amount per day)” value ([2]; about 2 years of inhalation, when the excreted urine volume is 1.5 L per day, normal levels: less than 0.2 g/day) was “about 0.1 g/day”, the urinary protein determination ([2]; approximately three years after first visit (about 2 years after the start of molecular hydrogen inhalation)) was 6.6 mg/dL and the HbA1c [2, 3] was 6.5%. For the same molecule, the blood sugar level [2, 3] was 139 mg/dL, the glyco-albumin [2, 3] was 17.3% and the “need for dialysis (doctor's judgement)” value [2, 3] was “dialysis was not required”. For the same molecule, the “renal function and diabetic symptoms (assessment in words)” value [2, 3] was “improvement in renal function and diabetic symptoms was observed”, the serum creatinine [2, 3] was 0.86 mg/dL and the “urea nitrogen (BUN)” value [2, 3] was 21.5 mg/dL. The urinary creatinine [2, 3] was 27.3 mg/dL, the eGFR ([2]; approximately three years after first visit (about 2 years of inhalation), formula of b46 (ml/min/1.73 m^2)) was 45.9 and the “urinary protein/urinary creatinine ratio” value ([2]; approximately three years after first visit (about 2 years of inhalation), normal levels: less than 0.3 g/gCr) was 0.24 g/gCr. The HbA1c [2, 4] was 8.0%, the blood sugar level [2, 4] was 181 mg/dL and the glyco-albumin [2, 4] was 24.7%. For the same molecule, the “renal function (assessment in words)” value [2, 4] was “tendency for improvement”, the serum creatinine [2, 4] was 0.91 mg/dL and the “symptoms of diabetes (assessment in words)” value [2, 4] was “seem to be getting worse”. For the same molecule, the “urea nitrogen (BUN)” value [2, 4] was 22.1 mg/dL, the urinary creatinine [2, 5] was 24.1 mg/dL and the urinary protein determination [2, 5] was 25.3 mg/dL. For the same molecule, the “urinary protein/urinary creatinine ratio” value [2, 5] was 1.05 g/gCr, the eGFR ([2]; approximately two and a half years after first visit, eGFR estimated by the formula of b46 (ml/min/1.73 m^2)) was 52.0 and the urinary protein ([2]; approximately two and a half years after first visit, inhalation of 6 to 7.5% hydrogen about 2 to 3 hours per day, started about one year after first visit, concomitant medicaments) was “± (± is A2)”.
